# Measurements taken from patent publication US10266495B2, “Phenyl quinolinone derivatives as mutant-isocitrate dehydrogenase inhibitors” (FORMA TM2, Inc., priority 2014, dated 2019).
# Molecular target: IDH1-R132H recombinant protein (Homo sapiens, UniProt O75874, R132H)
# Assay: IDH1-R132H enzymatic assay (NADPH consumption, diaphorase/resazurin readout)
# Type: biochemical
# Conditions: not given
# Procedure: Assays were performed in a 384-well black plate. An aliquot of 250 nL of compound was incubated with 10 μL of 30 nM IDH1-R132H or 10 nM IDH1-R132C recombinant protein in assay buffer (50 mM Tris pH=7.5, 150 mM NaCl, 5 mM MgCl2, 0.1% (w/v) Bovine Serum Albumin, and 0.01% Triton X-100) in each well at 25° C. for 15 minutes. After the plate was centrifuged briefly, an aliquot of 10 μL of 2 mM α-ketoglutarate and 20 μM NADPH solution prepared in assay buffer was then added to each well and the reaction was maintained at 25° C. for 45 minutes. An aliquot of 10 μL of diaphorase solution (0.15 U/mL diaphorase and 30 μM Resazurin in assay buffer) was added to each well. […] The IC50 of a given compound was calculated by fitting the dose response curve of inhibition of NADPH consumption at a given concentration with the four parameter logistic equation.
# Chain of IDH1-R132H recombinant protein (O75874 whole entry R132H): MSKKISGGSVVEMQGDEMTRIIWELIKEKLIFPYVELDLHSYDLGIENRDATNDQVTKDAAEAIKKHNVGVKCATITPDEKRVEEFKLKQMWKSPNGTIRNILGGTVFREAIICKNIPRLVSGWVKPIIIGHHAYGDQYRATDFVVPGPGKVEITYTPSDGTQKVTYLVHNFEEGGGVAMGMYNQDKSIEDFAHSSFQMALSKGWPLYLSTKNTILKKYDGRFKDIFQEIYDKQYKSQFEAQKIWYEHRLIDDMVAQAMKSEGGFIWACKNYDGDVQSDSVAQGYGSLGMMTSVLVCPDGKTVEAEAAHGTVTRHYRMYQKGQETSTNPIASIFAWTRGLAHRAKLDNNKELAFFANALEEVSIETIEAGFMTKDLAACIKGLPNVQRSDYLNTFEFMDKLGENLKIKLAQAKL
row,Compound,IC50 [µM]
1,"N#Cc1ccc(NCc2cc3cc(Cl)ccc3[nH]c2=O)cc1C(F)(F)F [Compound I-35, 4-{[(6-chloro-2-oxo-1,2-dihydroquinolin-3-yl)methyl]amino}-2-(trifluoromethyl)benzonitrile]",0.1 to 1
2,"N#Cc1ccc(NCc2cc3cc(Cl)ccc3[nH]c2=O)cc1F [Compound I-37, 4-{[(6-chloro-2-oxo-1,2-dihydroquinolin-3-yl)methyl]amino}-2-fluorobenzonitrile]",0.1 to 1

# Same assay, conditions: read-out: Enzyme IDH1 R132H IC50 Range
row,IC50 [µM],Compound
1,> 1,"COc1cc(N[C@H](C)c2cc3cc(Cl)ccc3[nH]c2=O)ccc1C#N [Compound I-3, 4-{[(1R)-1-(6-chloro-2-oxo-1,2-dihydroquinolin-3-yl)ethyl]amino}-2-methoxybenzonitrile]"
2,> 1,"C[C@H](Nc1ccc(C#N)cc1S(C)(=O)=O)c1cc2cc(Cl)ccc2[nH]c1=O [Compound I-4, 4-{[(1S)-1-(6-chloro-2-oxo-1,2-dihydroquinolin-3-yl)ethyl]amino}-3-methanesulfonylbenzonitrile]"
3,> 1,"COc1cc(N[C@@H](C)c2cc3cc(Cl)ccc3[nH]c2=O)ccc1S(C)(=O)=O [Compound I-6, 6-chloro-3-[(1S)-1-[(4-methanesulfonyl-3-methoxyphenyl)amino]ethyl]-1,2-dihydroquinolin-2-one]"
4,0.1 to 1,"N#Cc1ccc(NCc2cc3cc(Cl)ccc3[nH]c2=O)cc1OCCO [Compound I-11, 4-{[(6-chloro-2-oxo-1,2-dihydroquinolin-3-yl)methyl]amino}-2-(2-hydroxyethoxy)benzonitrile]"
5,> 1,"COc1cc(NCc2cc3cc(Cl)ccc3[nH]c2=O)ccc1-n1ccnc1 [Compound I-12, 6-chloro-3-({[4-(1H-imidazol-1-yl)-3-methoxyphenyl]amino}methyl)-1,2-dihydroquinolin-2-one]"
6,0.1 to 1,"CCOc1cc(NCc2cc3cc(Cl)ccc3[nH]c2=O)ccc1C#N [Compound I-13, 4-{[(6-chloro-2-oxo-1,2-dihydroquinolin-3-yl)methyl]amino}-2-ethoxybenzonitrile]"
7,> 1,"N#Cc1ccc(NCc2cc3cc(Cl)ccc3[nH]c2=O)cc1OCC(N)=O [Compound I-14, 2-(5-{[(6-chloro-2-oxo-1,2-dihydroquinolin-3-yl)methyl]amino}-2-cyanophenoxy)acetamide]"
8,> 1,"COc1cc(NCc2cc3cc(Cl)ccc3[nH]c2=O)ccc1S(C)(=O)=O [Compound I-15, 6-chloro-3-{[(4-methanesulfonyl-3-methoxyphenyl)amino]methyl}-1,2-dihydroquinolin-2-one]"
9,> 1,"COc1cc(NCc2cc3cc(C)c(C)cc3[nH]c2=O)ccc1C#N [Compound I-17, 4-{[(6,7-dimethyl-2-oxo-1,2-dihydroquinolin-3-yl)methyl]amino}-2-methoxybenzonitrile]"
10,> 1,"COc1cc(NCc2cc3cc(C)ccc3[nH]c2=O)ccc1-n1cnc(C)c1 [Compound I-18, 3-({[3-methoxy-4-(4-methyl-1H-imidazol-1-yl)phenyl]amino}methyl)-6-methyl-1,2-dihydroquinolin-2-one]"
11,> 1,"Cc1cc2cc(CNc3cccc(S(=O)(=O)NC4=NCCC4)c3)c(=O)[nH]c2cc1C [Compound I-19, N-(3,4-dihydro-2H-pyrrol-5-yl)-3-{[(6,7-dimethyl-2-oxo-1,2-dihydroquinolin-3-yl)methyl]amino}benzene-1-sulfonamide]"
12,0.1 to 1,"COc1cc(NCc2cc3cc(C)c(C)cc3[nH]c2=O)ccc1-n1cnnn1 [Compound I-20, 3-({[3-methoxy-4-(1H-1,2,3,4-tetrazol-1-yl)phenyl]amino}methyl)-6,7-dimethyl-1,2-dihydroquinolin-2-one]"
13,0.01 to 0.1,"COc1cc(NCc2cc3cc(Br)ccc3[nH]c2=O)ccc1C#N [Compound I-23, 4-{[(6-bromo-2-oxo-1,2-dihydroquinolin-3-yl)methyl]amino}-2-methoxybenzonitrile]"
14,0.1 to 1,"COc1cc(NCc2cc3cc(I)ccc3[nH]c2=O)ccc1C#N [Compound I-28, 4-{[(6-iodo-2-oxo-1,2-dihydroquinolin-3-yl)methyl]amino}-2-methoxybenzonitrile]"
15,0.1 to 1,"COc1cc(NCc2cc3ccc(Cl)cc3[nH]c2=O)ccc1C#N [Compound I-29, 4-{[(7-chloro-2-oxo-1,2-dihydroquinolin-3-yl)methyl]amino}-2-methoxybenzonitrile]"
16,> 1,"COc1cc(NCc2cc3cccnc3[nH]c2=O)ccc1C#N [Compound I-31, 2-methoxy-4-{[(2-oxo-1,2-dihydro-1,8-naphthyridin-3-yl)methyl]amino}benzonitrile]"
17,0.1 to 1,"COc1cc(C#N)ccc1NCc1cc2cc(Cl)ccc2[nH]c1=O [Compound I-34, 4-{[(6-chloro-2-oxo-1,2-dihydroquinolin-3-yl)methyl]amino}-3-methoxybenzonitrile]"
18,> 1,"O=c1[nH]c2ccc(Cl)cc2cc1CNc1ccc(-n2ccnc2)cc1 [Compound I-39, 6-chloro-3-({[4-(1H-imidazol-1-yl)phenyl]amino}methyl)-1,2-dihydroquinolin-2-one]"
19,> 1,"NC(=O)c1ccccc1NCc1cc2cc(Cl)ccc2[nH]c1=O [Compound I-40, 2-{[(6-chloro-2-oxo-1,2-dihydroquinolin-3-yl)methyl]amino}benzamide]"
20,> 1,"COc1cc(NCc2cc3cc(Cl)ccc3[nH]c2=O)ccc1F [Compound I-41, 6-chloro-3-{[(4-fluoro-3-methoxyphenyl)amino]methyl}-1,2-dihydroquinolin-2-one]"
21,> 1,"CNC(=O)c1ccc(NCc2cc3cc(Cl)ccc3[nH]c2=O)cc1 [Compound I-42, 4-{[(6-chloro-2-oxo-1,2-dihydroquinolin-3-yl)methyl]amino}-N-methylbenzamide]"
22,> 1,"NC(=O)COc1ccc(NCc2cc3cc(Cl)ccc3[nH]c2=O)cc1 [Compound I-43, 2-(4-{[(6-chloro-2-oxo-1,2-dihydroquinolin-3-yl)methyl]amino}phenoxy)acetamide]"
23,> 1,"COc1cc(NCc2cc3cc(Cl)ccc3[nH]c2=O)ccc1Cl [Compound I-44, 6-chloro-3-{[(4-chloro-3-methoxyphenyl)amino]methyl}-1,2-dihydroquinolin-2-one]"
24,> 1,"N#CCc1cccc(NCc2cc3cc(Cl)ccc3[nH]c2=O)c1 [Compound I-45, 2-(3-{[(6-chloro-2-oxo-1,2-dihydroquinolin-3-yl)methyl]amino}phenyl)acetonitrile]"
25,> 1,"O=c1[nH]c2ccc(Cl)cc2cc1CNc1ccccc1F [Compound I-46, 6-chloro-3-{[(2-fluorophenyl)amino]methyl}-1,2-dihydroquinolin-2-one]"
26,> 1,"COc1cc(NCc2cc3ccccc3[nH]c2=O)ccc1-n1cnnn1 [Compound I-48, 3-({[3-methoxy-4-(1H-1,2,3,4-tetrazol-1-yl)phenyl]amino}methyl)-1,2-dihydroquinolin-2-one]"
27,> 1,"O=c1[nH]c2ccccc2cc1CNc1ccc(-n2cnnn2)cc1 [Compound I-49, 3-({[4-(1H-1,2,3,4-tetrazol-1-yl)phenyl]amino}methyl)-1,2-dihydroquinolin-2-one]"
28,0.1 to 1,"COc1cc(NCc2cc3cc(C)ccc3[nH]c2=O)ccc1C#N [Compound I-50, 2-methoxy-4-{[(6-methyl-2-oxo-1,2-dihydroquinolin-3-yl)methyl]amino}benzonitrile]"
